The values below come from patent US10745382B2 (BRISTOL-MYERS SQUIBB COMPANY, priority 2015, dated 2020).

In the first test the target is T1, PD-1/PD-L1 (Homo sapiens, UniProt Q9NZQ7).
T1 construct: made in house; host or cells: HEK293T
T1 sequence (Q9NZQ7 with tags, fused parts or gaps): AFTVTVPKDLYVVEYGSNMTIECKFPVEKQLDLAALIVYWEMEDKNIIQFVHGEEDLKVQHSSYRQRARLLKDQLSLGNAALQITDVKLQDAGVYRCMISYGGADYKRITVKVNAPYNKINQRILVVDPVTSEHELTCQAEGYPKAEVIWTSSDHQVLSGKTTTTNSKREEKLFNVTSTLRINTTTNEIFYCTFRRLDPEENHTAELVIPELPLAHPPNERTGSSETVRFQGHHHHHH
Nature of the test: PD-1/PD-L1 Homogenous Time-Resolved Fluorescence (HTRF) binding assay. The conditions noted are these: PD-L1-His 10 nM, PD-1-Ig 20 nM; numeric IC50; read-out: Range or IC50. Summed up: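 Compounds are tested for blocking the PD-1/PD-L1 interaction in dPBS supplemented with 0.1% BSA and 0.05% (v/v) Tween-20. Tagged proteins are detected with Eu-cryptate anti-Ig and APC anti-His at 1 and 20 nM final.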
With `Cc1c(COc2cc(OCc3cncc(C#N)c3)c(CN[C@@H](Cc3ccc(O)cc3)C(=O)O)cc2Cl)cccc1-c1cccc(OCCCN2CC[C@@H](O)C2)c1C` [Example 4157, (5-chloro-2-((5-cyanopyridin-3-yl)methoxy)-4-((3′-(3-((R)-3-hydroxypyrrolidin-1-yl)propoxy)-2,2′-dimethyl-[1,1′-biphenyl]-3-yl)methoxy)benzyl)-L-tyrosine], the half-inhibitory concentration (IC50) (commonly the concentration needed to halve the response being measured) was found to be 3 nM.

For `Cc1ccc(COc2cc(OCc3cccc(-c4cccc(OCCCN5CC[C@@H](O)C5)c4C)c3C)c(Cl)cc2CNC(C)(CO)CO)cc1C` [Example 4506, (R)-2-((5-chloro-2-((3,4-dimethylbenzyl)oxy)-4-((3′-(3-(3-hydroxypyrrolidin-1-yl)propoxy)-2,2′-dimethyl-[1,1′-biphenyl]-3-yl)methoxy)benzyl)amino)-2-methylpropane-1,3-diol], the IC50 worked out at 3 nM.

The test is the same for the next values; noted with them: PD-L1-His 10 nM, PD-1-Ig 20 nM; value given as range class; read-out: Range or IC50.
As for `Cc1c(COc2cc(OCc3cncc(C#N)c3)c(CN[C@@H](Cc3ccccc3)C(=O)O)cc2Cl)cccc1-c1cccc(OCCCN2CC[C@@H](O)C2)c1C` [Example 4152, (5-chloro-2-((5-cyanopyridin-3-yl)methoxy)-4-((3′-(3-((R)-3-hydroxypyrrolidin-1-yl)propoxy)-2,2′-dimethyl-[1,1′-biphenyl]-3-yl)methoxy)benzyl)-L-phenylalanine], the IC50 fell in the range of 0.21 to 10 nM.

Turning to `Cc1c(COc2cc(OCc3cncc(C#N)c3)c(CN[C@@H](CC(C)C)C(=O)O)cc2Cl)cccc1-c1cccc(OCCCN2CC[C@@H](O)C2)c1C` [Example 4153, (5-chloro-2-((5-cyanopyridin-3-yl)methoxy)-4-((3′-(3-((R)-3-hydroxypyrrolidin-1-yl)propoxy)-2,2′-dimethyl-[1,1′-biphenyl]-3-yl)methoxy)benzyl)-L-leucine], the IC50 is 0.21 to 10 nM.

With `CCC[C@H](NCc1cc(Cl)c(OCc2cccc(-c3cccc(OCCCN4CC[C@@H](O)C4)c3C)c2C)cc1OCc1cncc(C#N)c1)C(=O)O` [Example 4154, (S)-2-((5-chloro-2-((5-cyanopyridin-3-yl)methoxy)-4-((3′-(3-((R)-3-hydroxypyrrolidin-1-yl)propoxy)-2,2′-dimethyl-[1,1′-biphenyl]-3-yl)methoxy)benzyl)amino)pentanoic Acid], the IC50 was in the range of 0.21 to 10 nM.

Turning to `C=CC[C@H](NCc1cc(Cl)c(OCc2cccc(-c3cccc(OCCCN4CC[C@@H](O)C4)c3C)c2C)cc1OCc1cncc(C#N)c1)C(=O)O` [Example 4155, (S)-2-((5-chloro-2-((5-cyanopyridin-3-yl)methoxy)-4-((3′-(3-((R)-3-hydroxypyrrolidin-1-yl)propoxy)-2,2′-dimethyl-[1,1′-biphenyl]-3-yl)methoxy)benzyl)amino)pent-4-enoic Acid], the IC50 was in the range of 0.21 to 10 nM.

Regarding `Cc1c(COc2cc(OCc3cncc(C#N)c3)c(CN[C@H](C(=O)O)c3ccccc3)cc2Cl)cccc1-c1cccc(OCCCN2CC[C@@H](O)C2)c1C` [Example 4156, (S)-2-((5-chloro-2-((5-cyanopyridin-3-yl)methoxy)-4-((3′-(3-((R)-3-hydroxypyrrolidin-1-yl)propoxy)-2,2′-dimethyl-[1,1′-biphenyl]-3-yl)methoxy)benzyl)amino)-2-phenylacetic Acid], the concentration for half-maximal inhibition (IC50) lay within 0.21 to 10 nM.

As for `Cc1c(COc2cc(OCc3cc(Cl)cc(Cl)c3)c(CNC(CO)CO)cc2Cl)cccc1-c1cccc(OCCCN2CC[C@@H](O)C2)c1C` [Example 4501, (R)-2-((5-chloro-2-((3,5-dichlorobenzyl)oxy)-4-((3′-(3-(3-hydroxypyrrolidin-1-yl)propoxy)-2,2′-dimethyl-[1,1′-biphenyl]-3-yl)methoxy)benzyl)amino)propane-1,3-diol], the IC50 is 0.21 to 10 nM.

As to `Cc1c(COc2cc(OCc3cc(Cl)cc(Cl)c3)c(CNC(CO)(CO)CO)cc2Cl)cccc1-c1cccc(OCCCN2CC[C@@H](O)C2)c1C` [Example 4502, (R)-2-((5-chloro-2-((3,5-dichlorobenzyl)oxy)-4-((3′-(3-(3-hydroxypyrrolidin-1-yl)propoxy)-2,2′-dimethyl-[1,1′-biphenyl]-3-yl)methoxy)benzyl)amino)-2-(hydroxymethyl)propane-1,3-diol], the IC50 was 0.21 to 10 nM.

`Cc1c(COc2cc(OCc3cc(Cl)cc(Cl)c3)c(CN3CCCC[C@H]3C(=O)O)cc2Cl)cccc1-c1cccc(OCCCN2CC[C@@H](O)C2)c1C` [Example 4503, (S)-1-(5-chloro-2-((3,5-dichlorobenzyl)oxy)-4-((3′-(3-((R)-3-hydroxypyrrolidin-1-yl)propoxy)-2,2′-dimethyl-[1,1′-biphenyl]-3-yl)methoxy)benzyl)piperidine-2-carboxylic Acid]: the IC50 lay in the range of 0.21 to 10 nM.

With `Cc1c(COc2cc(OCc3cc(Cl)cc(Cl)c3)c(CNC(C)(CO)CO)cc2Cl)cccc1-c1cccc(OCCCN2CC[C@@H](O)C2)c1C` [Example 4504, (R)-2-((5-chloro-2-((3,5-dichlorobenzyl)oxy)-4-((3′-(3-(3-hydroxypyrrolidin-1-yl)propoxy)-2,2′-dimethyl-[1,1′-biphenyl]-3-yl)methoxy)benzyl)amino)-2-methylpropane-1,3-diol], the IC50 is 0.21 to 10 nM.

On to `Cc1ccc(COc2cc(OCc3cccc(-c4cccc(OCCCN5CC[C@@H](O)C5)c4C)c3C)c(Cl)cc2CNC(CO)CO)cc1C` [Example 4505, (R)-2-((5-chloro-2-((3,4-dimethylbenzyl)oxy)-4-((3′-(3-(3-hydroxypyrrolidin-1-yl)propoxy)-2,2′-dimethyl-[1,1′-biphenyl]-3-yl)methoxy)benzyl)amino)propane-1,3-diol], for which the IC50 lay within 0.21 to 10 nM.

On to `Cc1ccc(COc2cc(OCc3cccc(-c4cccc(OCCCN5CC[C@@H](O)C5)c4C)c3C)c(Cl)cc2CNC(CO)(CO)CO)cc1C` [Example 4507, (R)-2-((5-chloro-2-((3,4-dimethylbenzyl)oxy)-4-((3′-(3-(3-hydroxypyrrolidin-1-yl)propoxy)-2,2′-dimethyl-[1,1′-biphenyl]-3-yl)methoxy)benzyl)amino)-2-(hydroxymethyl)propane-1,3-diol], for which the IC50 was in the range of 0.21 to 10 nM.

Take `Cc1ccc(COc2cc(OCc3cccc(-c4cccc(OCCCN5CC[C@@H](O)C5)c4C)c3C)c(Cl)cc2CN2CCCC[C@H]2C(=O)O)cc1C` [Example 4508, (S)-1-(5-chloro-2-((3,4-dimethylbenzyl)oxy)-4-((3′-(3-((R)-3-hydroxypyrrolidin-1-yl)propoxy)-2,2′-dimethyl-[1,1′-biphenyl]-3-yl)methoxy)benzyl)piperidine-2-carboxylic Acid]: the IC50 lay within 0.21 to 10 nM.

Turning to `Cc1c(COc2cc(OCc3ccc(F)c(F)c3)c(CNC(CO)CO)cc2Cl)cccc1-c1cccc(OCCCN2CC[C@@H](O)C2)c1C` [Example 4509, (R)-2-((5-chloro-2-((3,4-difluorobenzyl)oxy)-4-((3′-(3-(3-hydroxypyrrolidin-1-yl)propoxy)-2,2′-dimethyl-[1,1′-biphenyl]-3-yl)methoxy)benzyl)amino)propane-1,3-diol], the IC50 was 0.21 to 10 nM.

For the compound `Cc1c(COc2cc(OCc3ccc(F)c(F)c3)c(CNC(C)(CO)CO)cc2Cl)cccc1-c1cccc(OCCCN2CC[C@@H](O)C2)c1C` [Example 4510, (R)-2-((5-chloro-2-((3,4-difluorobenzyl)oxy)-4-((3′-(3-(3-hydroxypyrrolidin-1-yl)propoxy)-2,2′-dimethyl-[1,1′-biphenyl]-3-yl)methoxy)benzyl)amino)-2-methylpropane-1,3-diol], the IC50 is 10 to 100 nM.

Take `Cc1c(COc2cc(OCc3ccc(F)c(F)c3)c(CNC(CO)(CO)CO)cc2Cl)cccc1-c1cccc(OCCCN2CC[C@@H](O)C2)c1C` [Example 4511, (R)-2-((5-chloro-2-((3,4-difluorobenzyl)oxy)-4-((3′-(3-(3-hydroxypyrrolidin-1-yl)propoxy)-2,2′-dimethyl-[1,1′-biphenyl]-3-yl)methoxy)benzyl)amino)-2-(hydroxymethyl)propane-1,3-diol]: the IC50 was in the range of 0.21 to 10 nM.

On to `Cc1c(COc2cc(OCc3ccc(F)c(F)c3)c(CN3CCCC[C@H]3C(=O)O)cc2Cl)cccc1-c1cccc(OCCCN2CC[C@@H](O)C2)c1C` [Example 4512, (S)-1-(5-chloro-2-((3,4-difluorobenzyl)oxy)-4-((3′-(3-((R)-3-hydroxypyrrolidin-1-yl)propoxy)-2,2′-dimethyl-[1,1′-biphenyl]-3-yl)methoxy)benzyl)piperidine-2-carboxylic Acid], for which the IC50 was 0.21 to 10 nM.

`Cc1cccc(C)c1COc1cc(OCc2cccc(-c3cccc(OCCCN4CC[C@@H](O)C4)c3C)c2C)c(Cl)cc1CNC(C)(CO)CO` [Example 4514, (R)-2-((5-chloro-2-((2,6-dimethylbenzyl)oxy)-4-((3′-(3-(3-hydroxypyrrolidin-1-yl)propoxy)-2,2′-dimethyl-[1,1′-biphenyl]-3-yl)methoxy)benzyl)amino)-2-methylpropane-1,3-diol]: the IC50 lay in the range of 100 to 2000 nM.

As to `Cc1cccc(C)c1COc1cc(OCc2cccc(-c3cccc(OCCCN4CC[C@@H](O)C4)c3C)c2C)c(Cl)cc1CN1CCCC[C@H]1C(=O)O` [Example 4516, (S)-1-(5-chloro-2-((2,6-dimethylbenzyl)oxy)-4-((3′-(3-((R)-3-hydroxypyrrolidin-1-yl)propoxy)-2,2′-dimethyl-[1,1′-biphenyl]-3-yl)methoxy)benzyl)piperidine-2-carboxylic Acid], the IC50 is 2010 to 10000 nM.

For `COc1cc(/C=C/c2cccc(-c3cccc(OCCCN4CC[C@@H](O)C4)c3C)c2C)c(Cl)cc1CN1CCCC[C@H]1C(=O)O` [Example 4517, (S)-1-(5-chloro-4-((E)-2-(3′-(3-((R)-3-hydroxypyrrolidin-1-yl)propoxy)-2,2′-dimethyl-[1,1′-biphenyl]-3-yl)vinyl)-2-methoxybenzyl)piperidine-2-carboxylic Acid], the IC50 was in the range of 0.21 to 10 nM.
